Laboratory results: paper PMC12700550, “DLL4^+ neutrophils promote Notch1-mediated endothelial PANoptosis to exacerbate acute lung injury in sepsis” (The Journal of Clinical Investigation, 2025)
Values joined by “and” are separate entries in the source; they are usually repeats but may differ in a detail not shown here. Identical values can stand only once.

B1: eCIRP: extracellular cold-inducible RNA-binding protein; recombinant murine, produced in our laboratory (protein, UniProt P60824 1-172, looked up)
Cold-inducible RNA-binding …: MASDEGKLFVGGLSFDTNEQALEQVFSKYGQISEVVVVKDRETQRSRGFGFVTFENIDDAKDAMMAMNGKSVDGRQIRVDQAGKSSDNRSRGYRGGSAGGRGFFRGGRSRGRGFSRGGGDRGYGGGRFESRSGGYGGSRDYYASRSQGGSYGYRSSGGSYRDSYDSYATHNE

Tests used:
c-caspase-3 = assay: c/t caspase-3 (apoptosis) in PVECs cocultured with neutrophils, Western blot; type: cell-based, mouse; conditions: for c/t caspase-3 (Figure 4H): 10 μM peptide, 16 h, individual replicates
Protocol: Wild-type PVECs (5 × 10^5) were cocultured with sorted DLL4^+ neutrophils (5 × 10^5) or DLL4^– neutrophils (5 × 10^5) and then treated with different dosages of peptides or 10 μM DAPT (Thermo Fisher Scientific), 10 μM NDI (GenScript), or 10 μM NDI scramble (GenScript). Notch1-knockdown PVECs (5 × 10^5) were cocultured with sorted DLL4^+ neutrophils (5 × 10^5). After 16 hours, neutrophils were washed away by PBS, and PVECs were collected for further experiments. Cell viability was evaluated by propidium iodide staining using the FITC Annexin V Apoptosis Detection Kit I (catalog 556547, BD Pharmingen). Cell death was quantified as the percentage of propidium iodide–positive cells by flow cytometry.
PVECs and lung tissue were collected in previous steps. Whole-cell proteins were extracted, and the protein concentration was measured using an ABC protein assay kit (catalog 5000002, Bio-Rad). Proteins were separated using NuPAGE 4%–12% Bis-Tris gels (Invitrogen), transferred to PVDF membranes, and immunoblotted with the antibodies indicated in the figure legends according to the manufacturer’s recommendations. The ZBP1 antibody (catalog PA5-20455; 1:1,000) used in this study was obtained from Thermo Fisher Scientific, and the c-GSDMD (catalog 10137S; 1:250), GSDMD (catalog 39754S; 1:1000), c-caspase-3 (catalog 9661L; 1:250), caspase-3 (catalog 9662S; 1:1,000), p-MLKL (catalog 37333S; 1:250), MLKL (catalog 37705S; 1:1,000), N1ICD (c-Notch1) (catalog 4147S; 1:250), and Notch1 (catalog 3608S; 1:1,000) antibodies were obtained from Cell Signaling Technology. GAPDH (catalog 60004-1-Ig; 1:10,000) and β-actin (catalog A5441, Sigma-Aldrich; 1:5,000) were obtained from ProteinTech. After the blots were incubated with primary antibodies, the membranes were washed 3 times, and the blots were subsequently incubated with the corresponding fluorescent secondary antibody (LI-COR). Bands were detected using an Odyssey FC Dual-Mode Imaging system 2800 (LI-COR).

c-GSDMD = assay: c/t GSDMD in lungs of CLP mice, Western blot; type: in vivo, mouse; conditions: 10 mg/kg NDI, 20 h; for lung c/t GSDMD (Figure 5D): individual mice, 10 mg/kg
Protocol: (§1) Sepsis was induced in mice by cecal ligation and puncture (CLP) as described previously ([45], [46]). Mice were anesthetized with isoflurane to a surgical plane and placed in a supine position. CLP was performed through a midline laparotomy. The abdomen was shaved and disinfected. Through a 2 cm midline incision, the cecum was exposed and then ligated with a 4-0 silk suture 1 cm proximal from the distal cecal extremity. For 20-hour CLP experiments, the cecum was punctured twice with a 22-gauge needle. A small amount of cecal content was extruded through both holes, and the ligated cecum was returned to the peritoneal cavity. The wound was closed in layers. For 10-day sepsis survival studies, the cecum was punctured once with a 22-gauge needle. A small amount of cecal content was extruded. Mice were allocated to the vehicle and adoptive transfer of DLL4^+ neutrophils or DLL4^– neutrophils groups. Adoptive transfer mice received a retro-orbital injection of 1 × 10^6 cells per mouse DLL4^+ neutrophils or DLL4^– neutrophils in […] phosphate-buffered saline (PBS) immediately after abdominal closure in both the 20-hour experiments and the survival study. Vehicle groups received an equivalent volume of PBS, while treatment groups received NDI 10 mg/kg in […] PBS via retro-orbital injection after CLP. This dose was chosen primarily on the basis of our laboratory’s prior experience, we have consistently used this dose in mouse CLP models with reproducible efficacy and without observable toxicity ([39], [44]). Sham-operated animals underwent a laparotomy without CLP. After closure, the mice received a subcutaneous injection of 0.5 mL of normal saline to overcome surgery-induced dehydration. […]
PVECs and lung tissue were collected in previous steps. Whole-cell proteins were extracted, and the protein concentration was measured using an ABC protein assay kit (catalog 5000002, Bio-Rad). […] Bands were detected using an Odyssey FC Dual-Mode Imaging system 2800 (LI-COR).

C57BL/6 mice, CLP sepsis = assay: 10-day survival, CLP mice; type: in vivo, mouse; conditions: 10 mg/kg NDI
Protocol: as §1
Data represented in the figures are expressed as mean ± SEM and were compared by 2-tailed Student’s t test for 2 groups or 1-way ANOVA using Student-Newman-Keuls post hoc analysis for multiple groups. Survival rates were analyzed by the Kaplan-Meier estimator and compared using a log-rank test. […]

DLL1 = DLL1 mRNA in eCIRP-treated BMDNs, qPCR; type: cell-based, mouse; conditions: for DLL1 mRNA: DLL1-CIRP
Protocol: mRNA was extracted from lung tissues with TRIzol reagent (Invitrogen, Thermo Fisher Scientific). An equal amount ([…]) of mRNA was reverse-transcribed into cDNA using the reverse transcriptase enzyme (Invitrogen, Thermo Fisher Scientific). qPCR was performed from the diluted cDNA templates with forward and reverse primers (Supplemental Table 4) and SYBR Green PCR Master Mix (Applied Biosystems, Thermo Fisher Scientific) using an Applied Biosystems 7300 real-time PCR machine. Mouse β-actin served as an internal control gene for normalization. Relative expression of mRNA was represented as fold change in comparison with the sham group.
BMDNs (1 × 10^6) were treated with eCIRP (1 μg/mL) for 12 hours, and DLL1, DLL3, and DLL4 were analyzed by qPCR.

Molecule	effect on c-caspase-3 (c-caspase-3; 10 μM NDI, DLL4^+ neutrophil coculture)	c/t caspase-3 (Figure 4H) (c-caspase-3; DLL4^+ neutrophil coculture)	c/t caspase-3 (Figure 4H) (c-caspase-3; DLL4^– neutrophil coculture)	lung c/t GSDMD (Figure 5D) (c-GSDMD; DLL4^+ neutrophils + CLP)	effect on lung c-GSDMD (c-GSDMD; DLL4^+ neutrophils/sepsis)	lung c/t GSDMD (Figure 5D) (c-GSDMD; DLL4^– neutrophils + CLP)	survival rate, 10 days (C57BL/6 mice, CLP sepsis; N = 20, PBS-injected 15%) [%]	survival event code (Figure 6M) (C57BL/6 mice, CLP sepsis; individual mice, code 0 stands at day 10, 1 at earlier days (meaning not given), 10 mg/kg)	survival time (Figure 6M) (C57BL/6 mice, CLP sepsis; no exogenous neutrophils, individual mice, event code in next endpoint, 10 mg/kg)	effect on DLL1 expression (DLL1; BMDNs, eCIRP 1 μg/mL, 12 h)	DLL1 mRNA (DLL1; replicate 1)	DLL1 mRNA (DLL1; replicate 2)	DLL1 mRNA (DLL1; replicate 3)	DLL1 mRNA (DLL1; replicate 4)	DLL1 mRNA (DLL1; replicate 5)	DLL1 mRNA (DLL1; replicate 6)	DLL1 mRNA (DLL1; replicate 7)	DLL1 mRNA (DLL1; replicate 8)
ECAGSPCHNGGTCEDGI [NDI]	significantly reduced these markers of PANoptosis	0.8975 and 0.9855 and 1.108 and 1.088 and 1.039 and 1.038	0.9343 and 1.21 and 1.29 and 1.079 and 1.0374 and 1.09	2.146 and 1.894 and 1.978 and 1.095 and 1.287 and 1.8342	attenuated the expression/activation	1.599 and 0.7489 and 0.6289 and 1.139 and 1.05	75	1 and 0	3 days and 6 days and 10 days and 2 days and 4 days									
B1										no significant induction of DLL1 or DLL3	0.838	0.9002	1.276	1.001	0.5711	0.6454	0.3425	0.4208
